The test system of the test is mice. As to the kind of experiment: Formalin paw test in mice. Type of test: in vivo. The conditions noted are these: Mus musculus, intravenous, 5 min before 5% formalin s.c. into hind paw, Phase 2 = 20-30 min after formalin, read-out: ED50, inhibition of nociceptive behaviour of Phase 2. The protocol: Formalin Paw Test In Mice
Four-six groups of six mice were treated with vehicle and one of four to five doses of the test compound (typically between 0.03, 0.1, 3 and 10 μmol/kg), administered intravenously into the tail vein (vehicle: 10% Tween-80 in saline; injection volume 10 ml/kg). This injection was followed 5 minutes later by 20 μl of 5% formalin, which was administered sub-cutaneously to the dorsum of the left hind paw. Immediately after formalin administration the animal was placed in a test chamber and data acquisition, using a detection device (Automated Nociception Analyser (ANA); Department of Anesthesiology, University of California, San Diego), was started, independently for each chamber. The nociceptive behaviour was measured as the number of counts (licking, lifting, biting and flinching actions) detected within the two phases of nociception (Yaksh et al, 2001). The nociceptive behaviour between 0 and 5 min after formalin injection (Phase 1) and between 20 and 30 min after formalin injection (Phase 2) was recorded and number of counts for each mouse, compared to the mean number of counts for the vehicle treated animals, was calculated. Once values for each mouse were obtained, the mean and s.e.m. were calculated for each treatment group. The percent inhibition data were then used to calculate ED50 values for Phase 1 and Phase 2.

By ED50 is commonly meant the midpoint of the dose-response relation. With `CCc1cccc2c(-c3nsc(CN4CCC(C(=O)NCCO)CC4)n3)cn(CC3CCOCC3)c12` [Example 10A, 7-Ethyl-3-[(5-{4-[(N-{2-hydroxy}ethyl)carboxamido]piperidin-1-yl}methyl)-(1,2,4]-thiadiazol-3-yl)-1-(tetrahydropyran-4-yl)methyl-1H-indole], the ED50 is below 5 µmol/kg.

On to `CS(=O)(=O)N(CCO)Cc1nc(-c2cn(CC3CCOCC3)c3c(Cl)cccc23)ns1` [Example 15, 7-Chloro-3-({5-[(N-{2-hydroxy}ethyl)-(N-{methylsulfonyl})amino]methyl}-([1,2,4]-thiadiazol-3-yl))-1-(tetrahydropyran-4-yl)methyl-1H-indole], for which the ED50 is below 5 µmol/kg.

As to `O=C(NCCO)C1CCN(Cc2nc(-c3cn(CC4CCOCC4)c4c(Cl)cccc34)no2)CC1` [Example 19], the 50% effective dose (ED50) was below 5 µmol/kg.

Consider `CN(CC(N)=O)Cc1nc(-c2cn(CC3CCOCC3)c3c(Cl)cccc23)no1` [Example 20, 7-Chloro-3-[(5-{[N-(carboxamido)methyl]-N-methylamino}methyl)-([1,2,4]oxadiazol-3-yl)]-1-(tetrahydropyran-4-yl)methyl-1H-indole], for which the ED50 is below 5 µmol/kg.
